Data: patent US10392368B2, “Pyrazolo and triazolo bicyclic compounds as JAK kinase inhibitors” (THERAVANCE BIOPHARMA R&D IP, LLC, priority 2017, dated 2019)

Tested on: IL-2 stimulated pSTAT5 in PBMC CD4+ T cells
Experiment: Inhibition of IL-2 stimulated pSTAT5 in human PBMC CD4+ T cells
Format: cell-based
Conditions: flow cytometry
Method: The potency of test compounds for inhibition of interleukin-2 (IL-2) stimulated STAT5 phosphorylation was measured in human peripheral blood mononuclear cell (PBMC) CD4+ T cells using flow cytometry. Because IL-2 signals through JAK3, this assay provides a measure of JAK3 cellular potency in human primary cells.
Phosphorylated STAT5 was measured via flow cytometry by measuring pSTAT5 response in CD4+ T cells (Becton Disckinson, AlexaFluor 647 Mouse anti-Human STAT5 (pY694) and PE Mouse anti-Human CD4).
Human PBMCs were isolated from donors via Ficoll gradient and frozen at −80° C. Frozen PBMCs were thawed and cultured for one hour in a 37° C., 5% CO2 humidified incubator in RPMI (Life Technologies) supplemented with 10% Heat Inactivated Fetal Bovine Serum (FBS, Life Technologies), 2 mM Glutamax (Life Technologies), 25 mM HEPES (Life Technologies) and 1× Pen/Strep (Life Technologies). Cells were seeded into 2 ml deep well plates at 4e6 cells/ml (50 μl/well). […]
To determine the inhibitory potency of test compounds in response to IL-2, the median fluorescence intensity of pSTAT5 in CD4+ gated cells was measured in human PBMCs with a BD LSRII with analysis in FCS Express 6. IC50 values were determined from analysis of the inhibition curves of signal intensity vs compound concentration. Data are expressed as pIC50 (negative decadic logarithm IC50) values (mean±standard deviation).

SMILES | pIC50, inhibition of IL-2 stimulated pSTAT5, compared with assay 2
CN(C)C/C=C/C(=O)N1CCC(C)(Oc2cc(-c3ccc(O)cc3)cc3[nH]ncc23)CC1 [Compound 9, (E)-4-(dimethylamino)-1-(4-((6-(4-hydroxyphenyl)-1H-indazol-4-yl)oxy)-4-methylpiperidin-1-yl)but-2-en-1-one] | values very similar to the ones obtained in assay 2
CN(C)C/C=C/C(=O)N1CC(C#N)(COc2cc(-c3ccc(O)c(F)c3)cc3[nH]ncc23)C1 [Compound 8, (E)-1-(4-(dimethylamino)but-2-enoyl)-3-(((6-(3-fluoro-4-hydroxyphenyl)-1Hindazol-4-yl)oxy)methyl)azetidine-3-carbonitrile] | values very similar to the ones obtained in assay 2
